Experiment [1] has as its target T1, slc26a3 (Mus musculus, UniProt Q9WVC8).
T1 construct: expressed in transfected cells; host or cells: FRT cells coexpressing YFP
T1 sequence (Q9WVC8 1-757): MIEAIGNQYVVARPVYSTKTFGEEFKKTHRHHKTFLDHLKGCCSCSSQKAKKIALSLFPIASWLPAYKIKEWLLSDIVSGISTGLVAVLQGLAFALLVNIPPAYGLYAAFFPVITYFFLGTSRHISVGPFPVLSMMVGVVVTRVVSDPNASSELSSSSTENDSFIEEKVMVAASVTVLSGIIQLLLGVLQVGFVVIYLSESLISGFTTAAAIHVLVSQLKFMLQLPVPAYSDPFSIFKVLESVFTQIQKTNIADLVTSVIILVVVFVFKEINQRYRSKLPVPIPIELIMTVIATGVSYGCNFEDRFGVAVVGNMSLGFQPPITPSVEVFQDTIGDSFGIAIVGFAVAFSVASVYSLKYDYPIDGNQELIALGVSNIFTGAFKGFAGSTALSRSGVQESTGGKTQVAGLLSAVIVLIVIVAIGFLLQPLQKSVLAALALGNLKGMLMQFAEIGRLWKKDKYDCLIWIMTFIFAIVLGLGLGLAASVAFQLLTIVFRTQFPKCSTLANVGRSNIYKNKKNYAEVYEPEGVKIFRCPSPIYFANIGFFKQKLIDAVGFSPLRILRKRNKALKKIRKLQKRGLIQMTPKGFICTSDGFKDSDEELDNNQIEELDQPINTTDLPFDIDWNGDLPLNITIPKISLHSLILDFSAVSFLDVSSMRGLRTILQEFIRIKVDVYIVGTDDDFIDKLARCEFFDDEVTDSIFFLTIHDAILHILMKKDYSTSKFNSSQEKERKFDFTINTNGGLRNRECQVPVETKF
The experiment in a line: Selectivity: Cl-/I- exchange in FRT cells coexpressing YFP and slc26a3. The format is cell-based. Particulars: 25 μM. On the procedure: PAT1inh-B01 selectivity was studied by testing its effects on related SLC26A family anion transporters and the Cl^– channel TMEM16A. These measurements used a similar Cl^–/I^– exchange protocol, but FRT cells separately expressed each of the SLC26A family members or TMEM16A. […] PAT1inh-B01 selectivity was also tested by short-circuit current (Isc) in well-differentiated human bronchial epithelial (HBE) cells, which have a complex ion transport mechanism that includes cystic fibrosis transmembrane conductance regulator (CFTR), epithelial Na^+ channel (ENaC), and Ca^+2-activated chloride channels (CaCCs) ([13]). […] Potential PAT1inh-B01 cytotoxicity was studied in FRT cells.
Figure 3 PAT1inh-B01 selectivity and cytotoxicity. […] Cl^–/I^– exchange or I^– influx measured in FRT cells coexpressing YFP and SLC26A isoforms or TMEM16A, with data shown for 25 μM PAT1inh-B01, DMSO vehicle control, and 500 μM niflumic acid (positive control for SLC26A transporters) or 10 μM TMinh-23 (positive control for TMEM16A). […] (C) (left) Short-circuit current (Isc) in well-differentiated HBE cells measured in the absence (top) and presence (bottom) of 25 μM PAT1inh-B01. […]
YFP-based cellular assays of slc26a3, slc26a4, SLC26A9, and TMEM16A function were performed as described previously ([7]). […] The activities of ENaC, CFTR, and CaCC were determined using well-differentiated HBE cells as described previously ([13]). […]

Experiment [2] deals with ileal closed loops in cystic fibrosis (CF) mice (homozygous F508del). In words: Closed ileal loop fluid absorption in CF mice. The experiment is classed as in vivo, mouse. Particulars: 30 μM luminal. The method, then: For fluid absorption studies in small intestine, mice were given free access to 5% dextrose in water but not solid food for 24 hours before experiments. Closed midjejunal and ileal loops were prepared and isolated as described previously ([29]). Mice were anesthetized with isoflurane, and body temperature was maintained during surgery at 36°C–38°C using a heating pad. A small abdominal incision was made to expose small intestine for isolation of 3–4 closed small intestinal loops (jejunum or ileum, length 2–3 cm) with sutures. Loops were injected with 100 μL PBS (pH 7.4, 137 mM NaCl, 2.7 mM KCl, 8 mM Na2HPO4, 1.8 mM KH2PO4, 1 mM CaCl2, 0.5 mM MgCl2) containing 30 μM PAT1inh-B01, 10 μM DRAinh-A270, or 10 μM tenapanor (MedChemExpress) (or vehicle, 0.1% DMSO in PBS). In some experiments, 30 μM PAT1inh-B01 and 10 μM DRAinh-A270 were used together. In some experiments to rule out effects of sodium-dependent phosphate transport, the loop lumen contained HEPES-buffered saline (pH 7.4, 137 mM NaCl, 4.5 mM KCl, 10 mM HEPES, 1 mM CaCl2, 0.5 mM MgCl2). The abdominal incision was closed with sutures, and mice were allowed to recover from anesthesia. Intestinal loops were removed at 0 and 30 minutes (in separate mice), and loop length and weight were measured to quantify fluid absorption. In parallel experiments, CF mice were used and loop studies were done as described above. In some experiments, loop fluid was emptied with a syringe, and pH was measured immediately using AB15 pH meter after brief centrifugation at 2000 g for 5 minutes at 4°C.

SMILES strings stand for the structures.

For the molecule `Cc1c(Br)c(C(F)(F)F)nn1CC(=O)N1CCc2nc3cc(-c4ccccc4)[nH]n3c(=O)c2C1` [PAT1inh-B01], the “inhibition of slc26a3” value in experiment [1] is listed as “did not significantly inhibit”. Besides, the “effect on fluid absorption from ilea of CF mice” value in experiment [2] is given as “completely blocked”.

The record behind these values is paper PMC8262356, “SLC26A6-selective inhibitor identified in a small-molecule screen blocks fluid absorption in small intestine” (JCI Insight, 2021).
